In US8410045B2, “Camptothecin-peptide conjugates and pharmaceutical compositions containing the same” (Drais Pharmaceuticals, Inc., priority 2006, dated 2013):
“Also recorded” adds a separate entry of the source. Where a name gives a salt, the structure may show the parent alone. Marks after values point to notes of the source that are not given here.

Experiments:
[1] = system: NCI-H460 lung carcinoma; assay: Antitumor efficacy in NCI-H460 lung carcinoma model in nude mice; conditions: Table 9, 25 μmol/kg
[2] = In vitro cytotoxicity (WST-1 cell viability); format: cell-based, human; conditions: 1 h exposure + 48 h post-incubation; read-out: In vitro cytotoxicity IC50 (μM) NCI-H460
Experimental: Cytotoxic evaluation was performed by seeded cells for 24 h prior to the addition of the therapeutic compound. Cells were incubated for 48 h (37° C.) with different dilutions of the therapeutic compound. Cell viability was then assessed using the WST-1 assay (Roche). The results are expressed as mean cytotoxic concentrations (IC50 value or molar concentration that inhibits 50% of cell viability) that were estimated from sigmoid regression, using Graph Pad Prism 3.02 software.
NCI-H460 (ATCC#: HTB-177): human epithelial lung carcinoma cells. Cells were cultured in RPMI 1640+glutamax and 10% of fetal bovine serum. Cells were plated at a density of 10,000 cells/well in 96-well plates.

[3] = system: HCT 116 human colorectal carcinoma tumor
[4] = dog; F. Lavelle et al., Seminar in Oncology (1996); cited from earlier work
[5] = physchem; conditions: water
[6] = Toxicity study in the beagle dog following intravenous infusion; conditions: dog, 30 mg/kg
Experimental: Adult female and male beagle dogs were individually housed with free access to tap water. A pellet diet was distributed daily.
Dogs (1 dog for each drug and dose) were infused intravenously through the cephalic or saphenous vein. These intravenous infusions were made using a single-use catheter (Intraflon®) and a plastic syringe connected to a syringe pump. During the injection, the animals were restrained in a hammock.
Conjugates were dissolved in water for injection (10% of final volume) and diluted with 0.9% NaCl to their final concentration. The volume administered to each animal was adjusted according to body weight.
Clinical signs, hematological and intestinal toxicities were monitored during a period of 15 days after infusion. Each animal was checked at least twice a day for mortality or signs of morbidity.
The body weight of each animal was recorded on the day −1, 4, 10 and 13.
Peripheral blood samples were taken into EDTA tubes for the determination of following parameters on days −1, 5, 11 and 14: erythrocytes, hemoglobin, mean cell volume, packed cell volume, mean cell hemoglobin concentration, mean cell hemoglobin, thrombocytes, leucocytes, differential white cell count with cell morphology.

[7] = M. Horikawa, Pharmaceutical Res. 2002; cited from earlier work

CCc1c2c(nc3ccc(OC(=O)[C@H]4CC[C@H](CNC(=O)C5CCC(CN6C(=O)CC(SC[C@H](N)C(=O)N[C@H](C(=O)N[C@@H](CCCCN)C(=O)N[C@@H](CCCNC(=N)N)C(=O)NCC(=O)N[C@@H](CC(C)C)C(=O)N[C@@H](CCCCN)C(=O)N[C@@H](CC(C)C)C(=O)N[C@@H](CCCNC(=N)N)C(=O)N[C@@H](Cc7c[nH]cn7)C(=O)N[C@H](C(=O)N[C@@H](CCCNC(=N)N)C(=O)N7CCC[C@H]7C(=O)N[C@@H](CCCNC(=N)N)C(=O)N[C@H](C(=O)N[C@H](C(=O)N[C@@H](CCCNC(=N)N)C(=O)N[C@@H](CCSC)C(=O)N[C@@H](CC(=O)O)C(=O)N[C@H](C(=O)O)C(C)C)[C@@H](C)O)C(C)C)C(C)C)C(C)C)C6=O)CC5)CC4)cc13)-c1cc3c(c(=O)n1C2)COC(=O)[C@]3(O)CC (single isomer, unassigned) [DPV1047-BCH-SN38•HCl]
In vivo efficacy Optimal T/C % [1]: 22.9%
In vivo efficacy TGI % [1]: 77.1%
In vivo efficacy Optimal T/C % ([1]; listed as DPV1047-BCH-SN38.HCl): 18.4%
IC50 [2]: 173 µM

CCc1c2c(nc3ccc(OC(=O)N4CCC(N5CCCCC5)CC4)cc13)-c1cc3c(c(=O)n1C2)COC(=O)[C@]3(O)CC [irinotecan, reference compound]
TGI (100-T/C %) ([3]; Table 5, Q1D5, 18 (cumulative 90) μmol/kg): 90*** %
Minimal T/C (%) ([3]; iv): 10%
Maximal Tolerated Dose (MTD) [4]: 30 mg/kg
solubility [5]: ≤ 2500 µg/mL
body weight loss ([6]; 20 min infusion): −8.5%
white blood cells depletion ([6]; Day 5): 92%
Reduction in WBC at D5 (%) ([6]; i.v. infusion): −92%
Toxic signs Day 1 ([6]; i.v. infusion): Ptyalism; also recorded: Liquid feces; also recorded: Vomit; also recorded: Loss of balance; also recorded: Tremors (marked)
Toxic signs Following Days ([6]; i.v. infusion): Vomit: D4
excreted into bile [7]: > 26%
